# Measurements: patent publication US4250259A, “Microbiological production of ketones from C3 -C6 secondary alcohols” (priority 1979, dated 1981)
# Where two headings read alike, the source gives them in different places.
# How the values were obtained:
# [1] = tested on: secondary alcohol dehydrogenase (SADH), cell-free soluble extract; conditions: Growth Substrate CH3 OH
# Description: (§1) To prepare the cell-free secondary alcohol dehydrogenase (SADH) system, the washed cells were disrupted with a Wave Energy Ultrasonic Oscillator, Model W201 (Wave Energy System, Inc., Newtown, Pa.) and centrifuged at 20,000×g. for 30 minutes. […] The enzyme activity was measured with a fluorescence spectrophotometer (Perkin Elmer, Model MPF 44A) by following the formation of reduced NAD (EX 340 nm, Em 460 nm). The formation of reduced NAD was also followed with an absorption spectrophotometer at 340 nm. The assay system (3 ml.) contained: potassium phosphate buffer pH 7.0; 150 μmol.; NAD 1 μmol.; a given amount of enzyme preparation; and secondary alcohol 10 μmol. The reaction was started by the addition of substrate. One unit of enzyme activity represents the reduction of one μmole NAD per minute. Protein concentrations were determined by the Lowry method (J. Biol. Chem., 193: 255-275 (1951)).
# (§2) The experimental procedure for the tests reported in Table VIII were as follows: 1 mg protein of crude extract was added into a 0.5 ml. 0.05 M phosphate buffer (pH 7.0) in a 10-ml. vial. […] The reaction mixture was incubated at 30° C. on a water bath. A 3 μl sample was removed with a syringe at 15 min. of incubation and was assayed with g.l.c. Catalytic activity was also assayed by fluorescence spectrophotometry.
# [2] = tested on: secondary alcohol dehydrogenase, crude extracts; conditions: 2-butanol as a substrate; extracts of methanol-grown yeast
# Description: (§3) Cell suspensions (2 g. wet weight) of packed cells in 10 ml. of 50 mM sodium phosphate buffer, pH 7.0 at 4° C. were disrupted by sonication with a Megason ultrasonic disintegration. The sonicated cell suspensions were centrifuged for 15 minutes at 30,000×g. The supernantant liquid was termed the crude extracts.
# (§4) Secondary alcohol dehydrogenase activity was measured spectrophotometrically at 340 nm with a NAD^+ as an electron acceptor. The reaction mixture, in a total 3.0 ml., contained 50 mM phosphate buffer, pH 8.0, 5 μmoles NAD^+, crude extracts, and substrate. The reactions were started by addition of 100 μl of 0.1 M substrate and the rate of NAD^+ reduction was measured. Protein concentration was determined by the method of Lowry et al.
# (§5) Oxidation of secondary alcohols were also estimated spectrophotometrically by measuring the reduction of NAD^+. […] NRRL Y-11,328 Torulopsis sp.
# [3] = tested on: secondary alcohol dehydrogenase (SADH), cell-free soluble extract; conditions: Growth Substrate CH4
# Description: as §1, §2
# [4] = tested on: secondary alcohol dehydrogenase (SADH), cell-free soluble extract; conditions: Growth Substrate CH3 OH; remark: listed apart in the source
# Description: as §1, §2
# [5] = tested on: secondary alcohol dehydrogenase (SADH), cell-free soluble extract; conditions: Growth Substrate CH3 OH; remark: listed apart in the source
# Description: as §1, §2
# [6] = tested on: secondary alcohol dehydrogenase (SADH), cell-free soluble extract
# Description: as §1, §2
# [7] = tested on: secondary alcohol dehydrogenase (SADH), cell-free soluble extract; conditions: Growth Substrate CH4; remark: listed apart in the source
# Description: as §1, §2
# [8] = tested on: secondary alcohol dehydrogenase (SADH), cell-free soluble extract; conditions: Growth Substrate CH3 OH; remark: listed apart in the source
# Description: as §1, §2
# [9] = tested on: secondary alcohol dehydrogenase (SADH), cell-free soluble extract; conditions: Growth Substrate CH3 OH; remark: listed apart in the source
# Description: as §1, §2
# [10] = tested on: secondary alcohol dehydrogenase (SADH), cell-free soluble extract; conditions: Growth Substrate CH3 OH; remark: listed apart in the source
# Description: as §1, §2
# [11] = tested on: secondary alcohol dehydrogenase (SADH), cell-free soluble extract; conditions: Growth Substrate CH3 OH; remark: listed apart in the source
# Description: as §1, §2
# [12] = tested on: secondary alcohol dehydrogenase (SADH), cell-free soluble extract; conditions: Growth Substrate CH4; remark: listed apart in the source
# Description: as §1, §2
# [13] = tested on: secondary alcohol dehydrogenase (SADH), cell-free soluble extract; conditions: Growth Substrate CH4; remark: listed apart in the source
# Description: as §1, §2
# [14] = tested on: cell-free extracts of strain ATCC 21439; experiment: stoichiometry of production of 2-butanone from 2-butanol by cell-free extracts (Table IX); assay type: biochemical, Pseudomonas sp. ATCC 21,439; conditions: 30° C., 1.0 mg protein, 1.0 μmoles NAD, 10 μmoles 2-butanol
# Description: The reaction mixtures 3 ml (1.0 mg protein) were incubated at 30°
# ^(a) Determined gas chromatographically.
# ^(b) Determined fluorescence spectrophotometrically.
# consumption of NAD was corrected.
# [15] = tested on: secondary alcohol dehydrogenase, crude extracts; conditions: 2-butanol as a substrate; extracts of methanol-grown yeast; remark: listed apart in the source
# Description: as §3, §4, §5
# [16] = tested on: Pichia pastoris NRRL Y-55; conditions: cell suspensions
# Description: (§6) The cells were harvested during exponential growth by centrifugation at 12,000×g. for 15 min. The cell pellet was washed twice with 50 mM phosphate buffer, pH 7. The final pellet was resuspended in the same buffer. Cell suspensions of yeasts grown on ethanol, methylamine, and methylformate were prepared as described above using 0.4 v/v ethanol, 10 mM methylamine and 10 mM methylformate as the sole source of carbon and energy.
# (§7) A 1 ml. aliquot of each washed cell suspension of yeasts grown on various carbon sources was put into 10 ml. vials at 40° C. […] The vials were then incubated at 30° C. on a rotary water bath shaker at 200 rpm. The product of oxidation of secondary alcohols was detected by gas chromatography retention time comparison and co-chromatography with authentic standard.
# [17] = tested on: Candida boidinii NRRL Y-2332; conditions: cell suspensions
# Description: as §6, §7
# [18] = tested on: Hansenula anomala NRRL Y-336; conditions: cell suspensions
# Description: as §6, §7
# [19] = tested on: secondary alcohol dehydrogenase (SADH), cell-free soluble extract; conditions: Growth Substrate CH3 OH; remark: listed apart in the source
# Description: as §1, §2
# [20] = tested on: secondary alcohol dehydrogenase, crude extracts; conditions: 2-butanol as a substrate; extracts of methanol-grown yeast; remark: listed apart in the source
# Description: as §3, §4, §5
# [21] = tested on: secondary alcohol dehydrogenase (SADH), cell-free soluble extract; conditions: Growth Substrate CH4; remark: listed apart in the source
# Description: as §1, §2
# [22] = tested on: secondary alcohol dehydrogenase, crude extracts; conditions: 2-butanol as a substrate; extracts of methanol-grown yeast; remark: listed apart in the source
# Description: as §3, §4, §5
# [23] = tested on: secondary alcohol dehydrogenase (SADH), cell-free soluble extract; conditions: Growth Substrate CH4; remark: listed apart in the source
# Description: as §1, §2
# [24] = tested on: secondary alcohol dehydrogenase (SADH), cell-free soluble extract; conditions: Growth Substrate CH3 OH; remark: listed apart in the source
# Description: as §1, §2
structure (smiles),measurement,setting,value
"CCC(C)O (stereo not drawn) [2-Butanol, 2-butanol]","Conversion Rate, 2-butanol to 2-butanone",[1],5.0 nmoles/min/mg protein
same,specific activities,[2],90 nmoles NAD^+ reduced per min. per mg. protein
same,"Conversion Rate, 2-butanol to 2-butanone",[3],1.8 nmoles/min/mg protein
same,"Conversion Rate, 2-butanol to 2-butanone",[4],2.4 nmoles/min/mg protein
same,"Conversion Rate, 2-butanol to 2-butanone",[5],2.2 nmoles/min/mg protein
same,"Conversion Rate, 2-butanol to 2-butanone",[6]; Growth Substrate CH3 NH2,20.0 nmoles/min/mg protein
same,"Conversion Rate, 2-butanol to 2-butanone",[6]; Growth Substrate CH3 OH,23.2 nmoles/min/mg protein
same,"Conversion Rate, 2-butanol to 2-butanone",[6]; Growth Substrate HCOOCH3,16.0 nmoles/min/mg protein
same,"Conversion Rate, 2-butanol to 2-butanone",[7],0.8 nmoles/min/mg protein
same,"Conversion Rate, 2-butanol to 2-butanone",[8],1.6 nmoles/min/mg protein
same,"Conversion Rate, 2-butanol to 2-butanone",[9],2.0 nmoles/min/mg protein
same,"Conversion Rate, 2-butanol to 2-butanone",[10],1.8 nmoles/min/mg protein
same,"Conversion Rate, 2-butanol to 2-butanone",[11],15.0 nmoles/min/mg protein
same,"Conversion Rate, 2-butanol to 2-butanone",[12],2.6 nmoles/min/mg protein
same,"Conversion Rate, 2-butanol to 2-butanone",[13],1.2 nmoles/min/mg protein
same,2-Butanol Consumed,[14]; Experiment 1: 10 min.,260 nmol
same,2-Butanol Consumed,[14]; Experiment 2: 20 min.,530 nmol
same,specific activities,[15],105 nmoles NAD^+ reduced per min. per mg. protein
same,"conversion rates, 2-butanol to 2-butanone",[16],5.8 μ moles/hr/mg. protein
same,"conversion rates, 2-butanol to 2-butanone",[17],6.0 μ moles/hr/mg. protein
same,"conversion rates, 2-butanol to 2-butanone",[18],5.5 μ moles/hr/mg. protein
same,"Conversion Rate, 2-butanol to 2-butanone",[19],1.5 nmoles/min/mg protein
same,specific activities,[20],62 nmoles NAD^+ reduced per min. per mg. protein
same,"Conversion Rate, 2-butanol to 2-butanone",[21],0.5 nmoles/min/mg protein
same,specific activities,[22],78 nmoles NAD^+ reduced per min. per mg. protein
same,"Conversion Rate, 2-butanol to 2-butanone",[23],2.5 nmoles/min/mg protein
same,"Conversion Rate, 2-butanol to 2-butanone",[24],3.0 nmoles/min/mg protein
